Assay results: patent US20260274892A1, “MACROCYCLIC BROAD SPECTRUM ANTIBIOTICS” (RQx Pharmaceuticals, Inc., priority 2017, published 2026)

Experiments:
[1] = tested on: Methicillin Resistant Staphylococcus aureus strain USA 200; assay: Minimum inhibitory concentration (MIC), CLSI broth micro-dilution, S. aureus; type: cell-based; settings: Table 6, MRSA USA 200, cation adjusted Mueller Hinton Broth + 0.002% Tween-80, 35° C., 22 hours
Method in brief: (§1)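 Antibacterial potency is measured as MIC by the CLSI broth dilution method. Bacteria at OD600 0.0005 in Tween-80-supplemented cation-adjusted Mueller Hinton broth face ten twofold compound dilutions for 22 h at 35° C.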

[2] = tested on: Escherichia coli ATCC 25922; assay: Minimum inhibitory concentration (MIC), CLSI broth micro-dilution, E. coli; type: cell-based; settings: Table 6, cation adjusted Mueller Hinton Broth + 0.002% Tween-80, 35° C.
Method in brief: as §1

[3] = Staphylococcus aureus, MRSA / USA200
[4] = Escherichia coli, ATCC25922, 22 h

| Compound | MIC [1, 3] [µM] | MIC [2, 4] [µM] | MIC [1] [µM] | MIC ([2]; 22 hours) [µM] |
| --- | --- | --- | --- | --- |
| CCc1ccc(-c2nc(C)c(C(=O)N[C@@H](CCN)C(=O)N(C)[C@@H]3C(=O)N[C@@H](C)C(=O)N[C@H](C(=O)NCC#N)Cc4ccc(O)c(c4)-c4cc3ccc4OCCN)c(C)n2)cc1 (racemic) [Compound 516, rac-(8S,11S,14S)-18-(2-aminoethoxy)-N-(cyanomethyl)-3-hydroxy-11-methyl-14-[methyl-[rac-(2S)-4-amino-2-[[2-(4-ethylphenyl)-4,6-dimethyl-pyrimidine-5-carbonyl]amino]butanoyl]amino]-10,13-dioxo-9,12-diazatricyclo[13.3.1.12,6]icosa-1(18),2(20),3,5,15(19),16-hexaene-8-carboxamide] | 0.19 | 2 | – | – |
| CCC/C=C/c1ccc(-c2nc(C)c(C(=O)N[C@@H](CCN)C(=O)N(C)[C@@H]3C(=O)N[C@@H](C)C(=O)N[C@H](C(=O)NCC#N)Cc4ccc(OCCN)c(c4)-c4cc3ccc4OCCN)c(C)n2)cc1 (racemic) [Compound 278, rac-(8S,11S,14S)-3,18-bis(2-aminoethoxy)-N-(cyanomethyl)-11-methyl-14-[methyl-[rac-(2S)-4-amino-2-[[4,6-dimethyl-2-[4-[rac-(E)-pent-1-enyl]phenyl]pyrimidine-5-carbonyl]amino]butanoyl]amino]-10,13-dioxo-9,12-diazatricyclo[13.3.1.12,6]icosa-1(18),2(20),3,5,15(19),16-hexaene-8-carboxamide] | 0.0078 | 0.094 | – | – |
| Cc1nc(-c2ccc(C(C)(C)C)cc2)nc(C)c1C(=O)N[C@@H](CCN)C(=O)N(C)[C@@H]1C(=O)N[C@@H](C)C(=O)N[C@H](C(=O)NCC#N)Cc2ccc(O)c(c2)-c2cc1ccc2OCCN (racemic) [Compound 254, rac-(8S,11S,14S)-18-(2-aminoethoxy)-N-(cyanomethyl)-3-hydroxy-11-methyl-14-[methyl-[rac-(2S)-4-amino-2-[[2-(4-tert-butylphenyl)-4,6-dimethyl-pyrimidine-5-carbonyl]amino]butanoyl]amino]-10,13-dioxo-9,12-diazatricyclo[13.3.1.12,6]icosa-1(18),2(20),3,5,15(19),16-hexaene-8-carboxamide] | 0.061 | 0.24 | – | – |
| CCCCCCOc1ccc(-c2cc(-c3ccc(C(=O)N[C@@H](CCN)C(=O)N(C)[C@@H]4C(=O)N[C@@H](C)C(=O)N[C@H](C(=O)NCC#N)Cc5ccc(OCCN)c(c5)-c5cc4ccc5OCCN)cc3)no2)cc1 (racemic) [Compound 380, rac-(8S,11S,14S)-3,18-bis(2-aminoethoxy)-N-(cyanomethyl)-11-methyl-14-[methyl-[rac-(2S)-4-amino-2-[[4-[5-(4-hexoxyphenyl)isoxazol-3-yl]benzoyl]amino]butanoyl]amino]-10,13-dioxo-9,12-diazatricyclo[13.3.1.12,6]icosa-1(18),2(20),3,5,15(19),16-hexaene-8-carboxamide] | 0.045 | 0.48 | – | – |
| Cc1nc(-c2ccc(OC3CCCCC3)cc2)nc(C)c1C(=O)N[C@@H](CCCNC(N)=O)C(=O)N(C)[C@@H]1C(=O)N[C@@H](C)C(=O)N[C@H](C(=O)NCC#N)Cc2ccc(OCCN)c(c2)-c2cc1ccc2OCCN [Compound 501, (8S,11S,14S)-3,18-bis(2-aminoethoxy)-N-(cyanomethyl)-14-[[(2S)-2-[[2-[4-(cyclohexoxy)phenyl]-4,6-dimethyl-pyrimidine-5-carbonyl]amino]-5-ureido-pentanoyl]-methyl-amino]-11-methyl-10,13-dioxo-9,12-diazatricyclo[13.3.1.12,6]icosa-1(18),2(20),3,5,15(19),16-hexaene-8-carboxamide] | 0.063 | 1 | – | – |
| Cc1nc(-c2ccc(OC(C)(C)C)cc2)ncc1C(=O)N[C@@H](CCN)C(=O)N(C)[C@@H]1C(=O)N[C@@H](C)C(=O)N[C@H](C(=O)NCC#N)Cc2ccc(OCCN)c(c2)-c2cc1ccc2OCCN (racemic) [Compound 250, rac-(8S,11S,14S)-3,18-bis(2-aminoethoxy)-N-(cyanomethyl)-11-methyl-14-[methyl-[rac-(2S)-4-amino-2-[[2-(4-tert-butoxyphenyl)-4-methyl-pyrimidine-5-carbonyl]amino]butanoyl]amino]-10,13-dioxo-9,12-diazatricyclo[13.3.1.12,6]icosa-1(18),2(20),3,5,15(19),16-hexaene-8-carboxamide] | 0.066 | 0.35 | – | – |
| Cc1nc(-c2ccc(OC(C)C)cc2)nc(C)c1C(=O)N[C@@H](CCN)C(=O)N(C)[C@@H]1C(=O)N[C@@H](C)C(=O)N[C@H](C(=O)NCC#N)Cc2ccc(O)c(c2)-c2cc1ccc2OCCN (racemic) [Compound 552, rac-(8S,11S,14S)-18-(2-aminoethoxy)-N-(cyanomethyl)-3-hydroxy-11-methyl-14-[methyl-[rac-(2S)-4-amino-2-[[2-(4-isopropoxyphenyl)-4,6-dimethyl-pyrimidine-5-carbonyl]amino]butanoyl]amino]-10,13-dioxo-9,12-diazatricyclo[13.3.1.12,6]icosa-1(18),2(20),3,5,15(19),16-hexaene-8-carboxamide] | 0.25 | 1.4 | – | – |
| CNc1nc(-c2ccc(C(C)(C)C)cc2)ncc1C(=O)N[C@@H](CCN)C(=O)N(C)[C@@H]1C(=O)N[C@@H](C)C(=O)N[C@H](C(=O)NCC#N)Cc2ccc(OCCN)c(c2)-c2cc1ccc2OCCN [Compound 489] | 0.016 | 0.38 | – | – |
| Cc1nc(-c2ccc(CCC(C)C)cc2)nc(C)c1C(=O)N[C@@H](CCN)C(=O)N(C)[C@@H]1C(=O)N[C@@H](C)C(=O)N[C@H](C(=O)NCC#N)Cc2ccc(OCCN)c(c2)-c2cc1ccc2OCCN (racemic) [Compound 262, rac-(8S,11S,14S)-3,18-bis(2-aminoethoxy)-N-(cyanomethyl)-11-methyl-14-[methyl-[rac-(2S)-4-amino-2-[[2-(4-isopentylphenyl)-4,6-dimethyl-pyrimidine-5-carbonyl]amino]butanoyl]amino]-10,13-dioxo-9,12-diazatricyclo[13.3.1.12,6]icosa-1(18),2(20),3,5,15(19),16-hexaene-8-carboxamide] | 0.0081 | 0.097 | – | – |
| CCCCCCCCc1ccc(C(=O)N[C@@H](CCC(=O)N(C)C)C(=O)N(C)[C@@H]2C(=O)N[C@@H](C)C(=O)N[C@H](C(=O)NCC#N)Cc3ccc(OCCN)c(c3)-c3cc2ccc3OCCN)c(C)c1 (racemic) [Compound 444, rac-(2S)-N,N′,N′-trimethyl-2-[(2-methyl-4-octyl-benzoyl)amino]-N-[rac-(7S,10S,13S)-3,18-bis(2-aminoethoxy)-13-(cyanomethylcarbamoyl)-10-methyl-8,11-dioxo-9,12-diazatricyclo[13.3.1.12,6]icosa-1(19),2,4,6(20),15,17-hexaen-7-yl]pentanediamide] | 0.064 | 4.1 | – | – |
| Cc1nc(-c2ccc(CCC(C)C)cc2)ncc1C(=O)N[C@@H](CCN)C(=O)N(C)[C@@H]1C(=O)N[C@@H](C)C(=O)N[C@H](C(=O)NCC#N)Cc2ccc(OCCN)c(c2)-c2cc1ccc2OCCN (racemic) [Compound 220, rac-(8S,11S,14S)-3,18-bis(2-aminoethoxy)-N-(cyanomethyl)-11-methyl-14-[methyl-[rac-(2S)-4-amino-2-[[2-(4-isopentylphenyl)-4-methyl-pyrimidine-5-carbonyl]amino]butanoyl]amino]-10,13-dioxo-9,12-diazatricyclo[13.3.1.12,6]icosa-1(18),2(20),3,5,15(19),16-hexaene-8-carboxamide] | 0.0062 | 0.099 | – | – |
| CCCCCCCCCCCCCC(=O)N1C[C@H](N)CC1C(=O)N(C)[C@@H]1C(=O)N[C@@H](C)C(=O)N[C@H](C(=O)NCC#N)Cc2ccc(OCCN)c(c2)-c2cc1ccc2OCCN (mixture of isomers) [Compound 483, rac-(8S,11S,14S)-3,18-bis(2-aminoethoxy)-14-[(4-amino-1-tetradecanoyl-pyrrolidine-2-carbonyl)-methyl-amino]-N-(cyanomethyl)-11-methyl-10,13-dioxo-9,12-diazatricyclo[13.3.1.12,6]icosa-1(18),2(20),3,5,15(19),16-hexaene-8-carboxamide] | – | – | 0.036 | 0.29 |
| CCCC1(Oc2ccc(-c3nc(C)c(C(=O)N[C@@H](CCN)C(=O)N(C)[C@@H]4C(=O)N[C@@H](C)C(=O)N[C@H](C(=O)NCC#N)Cc5ccc(OCCN)c(c5)-c5cc4ccc5OCCN)c(C)n3)cc2)CC1 (racemic) [Compound 346, rac-(8S,11S,14S)-3,18-bis(2-aminoethoxy)-N-(cyanomethyl)-11-methyl-14-[methyl-[rac-(2S)-4-amino-2-[[4,6-dimethyl-2-[4-(1-propylcyclopropoxy)phenyl]pyrimidine-5-carbonyl]amino]butanoyl]amino]-10,13-dioxo-9,12-diazatricyclo[13.3.1.12,6]icosa-1(18),2(20),3,5,15(19),16-hexaene-8-carboxamide] | 0.016 | 0.13 | – | – |
| Cc1nc(-c2ccc(OC(C)(C)C)cc2)nc(C)c1C(=O)N[C@@H](CCN)C(=O)N(C)[C@@H]1C(=O)N[C@@H](C)C(=O)N[C@H](C(=O)NCC#N)Cc2ccc(OCCN)c(c2)-c2cc1ccc2OCCN (racemic) [Compound 342, rac-(8S,11S,14S)-3,18-bis(2-aminoethoxy)-N-(cyanomethyl)-11-methyl-14-[methyl-[rac-(2S)-4-amino-2-[[2-(4-tert-butoxyphenyl)-4,6-dimethyl-pyrimidine-5-carbonyl]amino]butanoyl]amino]-10,13-dioxo-9,12-diazatricyclo[13.3.1.12,6]icosa-1(18),2(20),3,5,15(19),16-hexaene-8-carboxamide] | 0.097 | 0.39 | – | – |
